What follows are compounds tested against T1, Trx-6×His-BCL6 (human BCL6 BTB domain covering amino-acid sequence 5-129) (Homo sapiens, UniProt P41182) (assay: HTRF assay (BCL6 / BCOR peptide)). Details: 1 nM Trx-6×His-BCL6, 300 nM BCOR-AF633 peptide, 2 hours incubation at room temperature; read-out: HTRF avg pIC50 (converted).
T1 construct: made in house
Assay type: binding
Description: After 2 hours incubation at room temperature the plate was read on a Pherastar FSX (BMG Labtech) plate reader equipped with 337 nm laser excitation filter, a first emission filter at 620 nm and a second emission filter at 665 nm. The % inhibition at each concentration was calculated by normalising FRET ratio to the appropriate high (DMSO with all reagents) and low (DMSO without BCL6) controls.

SMILES	IC50 [nM]
Cn1c(=O)c2c(c3cc(Nc4nc(N5CCC5)ncc4Cl)ccc31)N[C@@H](C1CC1)C(F)(F)CO2 [Example 11v, (S)-10-((2-(azetidin-1-yl)-5-chloropyrimidin-4-yl)amino)-2-cyclopropyl-3,3-difluoro-7-methyl-1,2,3,4-tetrahydro-[1,4]oxazepino[2,3-c]quinolin-6(7H)-one]	5.37
CO[C@@H]1C[C@H](C)CN(c2ncc(Cl)c(Nc3ccc4c(c3)c3c(c(=O)n4C)OCC(F)(F)[C@H](C4CC4)N3)n2)C1 [Example 12x05, (S)-10-((5-chloro-2-((3R,5S)-3-methoxy-5-methylpiperidin-1-yl)pyrimidin-4-yl)amino)-2-cyclopropyl-3,3-difluoro-7-methyl-1,2,3,4-tetrahydro-[1,4]oxazepino[2,3-c]quinolin-6(7H)-one]	3.72
C#CC1CCCN(c2ncc(Cl)c(Nc3ccc4c(c3)c3c(c(=O)n4C)OCC(F)(F)[C@H](C4CC4)N3)n2)C1 (stereo partly drawn) [Example 12x22, (2S)-10-((5-chloro-2-(3-ethynylpiperidin-1-yl)pyrimidin-4-yl)amino)-2-cyclopropyl-3,3-difluoro-7-methyl-1,2,3,4-tetrahydro-[1,4]oxazepino[2,3-c]quinolin-6(7H)-one]	22.9
Cn1c(=O)c2c(c3cc(Nc4nc(N5CC(CC#N)C5)ncc4Cl)ccc31)N[C@@H](C1CC1)C(F)(F)CO2 [Example 11t, (S)-2-(1-(5-chloro-4-((2-cyclopropyl-3,3-difluoro-7-methyl-6-oxo-1,2,3,4,6,7-hexahydro-[1,4]oxazepino[2,3-c]quinolin-10-yl)amino)pyrimidin-2-yl)azetidin-3-yl)acetonitrile]	3.47
CN(C)C[C@@H]1CCCN(c2ncc(Cl)c(Nc3ccc4c(c3)c3c(c(=O)n4C)OCC(F)(F)[C@H](C4CC4)N3)n2)C1 [Example 9b, (S)-10-((5-chloro-2-((S)-3-((dimethylamino)methyl)piperidin-1-yl)pyrimidin-4-yl)amino)-2-cyclopropyl-3,3-difluoro-7-methyl-1,2,3,4-tetrahydro-[1,4]oxazepino[2,3-c]quinolin-6(7H)-one]	3.09
CCCN(CCO)c1ncc(Cl)c(Nc2ccc3c(c2)c2c(c(=O)n3C)OCC(F)(F)[C@H](C3CC3)N2)n1 [Example 11k, (S)-10-((5-chloro-2-((2-hydroxyethyl)(propyl)amino)pyrimidin-4-yl)amino)-2-cyclopropyl-3,3-difluoro-7-methyl-1,2,3,4-tetrahydro-[1,4]oxazepino[2,3-c]quinolin-6(7H)-one]	9.77

Results, then the compound that gave them:

IC50 [nM]	SMILES
2.63	C[C@@H]1CN(C)CCN(c2ncc(Cl)c(Nc3ccc4c(c3)c3c(c(=O)n4C)OCC(F)(F)[C@H](C4CC4)N3)n2)C1 [Example 12g, (S)-10-((5-chloro-2-((R)-4,6-dimethyl-1,4-diazepan-1-yl)pyrimidin-4-yl)amino)-2-cyclopropyl-3,3-difluoro-7-methyl-1,2,3,4-tetrahydro-[1,4]oxazepino[2,3-c]quinolin-6(7H)-one:(S)-10-((5-chloro-2-((S)-4,6-dimethyl-1,4-diazepan-1-yl)pyrimidin-4-yl)amino)-2-cyclopropyl-3,3-difluoro-7-methyl-1,2,3,4-tetrahydro-[1,4]oxazepino[2,3-c]quinolin-6(7H)-one (1:1)]
6.31	Cn1c(=O)c2c(c3cc(Nc4nc(N5CCC(C)(O)C5)ncc4Cl)ccc31)N[C@@H](C1CC1)C(F)(F)CO2 (mixture of isomers) [Example 12a, (S)-10-((5-chloro-2-((R)-3-hydroxy-3-methylpyrrolidin-1-yl)pyrimidin-4-yl)amino)-2-cyclopropyl-3,3-difluoro-7-methyl-1,2,3,4-tetrahydro-[1,4]oxazepino[2,3-c]quinolin-6(7H)-one:(S)-10-((5-chloro-2-((S)-3-hydroxy-3-methylpyrrolidin-1-yl)pyrimidin-4-yl)amino)-2-cyclopropyl-3,3-difluoro-7-methyl-1,2,3,4-tetrahydro-[1,4]oxazepino[2,3-c]quinolin-6(7H)-one (1:1)]
